According to US6387935B1, “Polycyclic dihydrothiazoles having substituted alkyl radicals in the two-position, process for their preparation, and their use as pharmaceuticals” (Aventis Pharma Deutschland GmbH, priority 1999, dated 2002):
Several values for one entry are separate records, joined by “and”; a condition that tells them apart may be missing. Identical values can stand only once.

Tests used:
NMRI mice = test: Anorectic action: cumulated evaporated milk consumption after oral administration; assay type: in vivo; conditions: for cumulated milk consumption of the treated animals (male): oral dose 50 mg/kg via stomach tube, male NMRI mice after 24 hours feed withdrawal, milk offered 30 minutes after dosing, consumption determined half-hourly for 7 hours; for Reduction of the cumulated milk consumption in % of the control: oral dose 50 mg/kg, male NMRI mice, compared with untreated control animals
Method: The anorectic action was tested on male or female NMRI mice. After withdrawal of feed for 24 hours, the test preparation was administered via a stomach tube. Kept individually and with free access to drinking water, the animals were offered evaporated milk 30 minutes after giving the preparation. The consumption of evaporated milk was determined half-hourly for 7 hours and the general condition of the animals was observed. The measured milk consumption was compared with that of the untreated control animals.

OC12N=C(CSCc3ccccc3)SC1Cc1cc(Cl)ccc12 (stereo not shown) [Example 12, 2-Benzylsulfanylmethyl-6-chloro-8,8a-dihydroindeno [1,2-d]thiazol-3a-ol]
cumulated milk consumption of the treated animals (male) (NMRI mice): 5/1.36 ml | Reduction of the cumulated milk consumption in % of the control (NMRI mice): 71% | melting point: 102 to 104 °C and 102 °C

OC12N=C(COc3ccccc3)SC1Cc1cc(Cl)ccc12 (stereo not shown) [Example 1, 6-chloro-2-phenoxymethyl-8,8a-dihydroindeno[1,2-d]thiazol-3a-ol]
cumulated milk consumption of the treated animals (male) (NMRI mice): 5/0.42 ml | Reduction of the cumulated milk consumption in % of the control (NMRI mice): 86% | melting point: 121 °C

CC(C)(C)c1ccc(OCC2=NC3(O)c4ccc(Cl)cc4CC3S2)cc1 (single isomer, unassigned) [Example 9, 2-(4-tert-butylphenoxymethyl)-6-chloro-8,8a-dihydroindeno [1,2-d]thiazol-3a-ol]
cumulated milk consumption of the treated animals (male) (NMRI mice; 50 mg/kg): 5/0.26 ml | Reduction of the cumulated milk consumption in % of the control (NMRI mice; 50 mg/kg): 93% | melting point: 123 °C and 122 to 124 °C

Br.OC12N=C(COc3ccc(Cl)cc3Cl)SC1Cc1cc(Cl)ccc12 (stereo not shown) [Example 6, 6-Chloro-2-(2,4-dichlorophenoxymethyl)-8,8a-dihydroindeno[1,2-d]thiazol-3a-ol Hydrobromide]
cumulated milk consumption of the treated animals (male) (NMRI mice; Hydrobromide, 50 mg/kg): 5/0.22 ml | Reduction of the cumulated milk consumption in % of the control (NMRI mice; Hydrobromide, 50 mg/kg): 95% | melting point: 170 °C

CC(C)(C)c1ccc(OCC2=NC3(O)c4ccc(Cl)cc4CC3S2)cc1 (single isomer, unassigned) [Example 3]
cumulated milk consumption of the treated animals (male) (NMRI mice; 50 mg/kg): 5/0.78 ml | Reduction of the cumulated milk consumption in % of the control (NMRI mice; 50 mg/kg): 73%

Br.OC12N=C(COc3ccc(Cl)cc3Cl)SC1Cc1cc(Cl)ccc12 (stereo not shown) [Example 2]
cumulated milk consumption of the treated animals (male) (NMRI mice; 50 mg/kg): 5/0.34 ml | Reduction of the cumulated milk consumption in % of the control (NMRI mice; 50 mg/kg): 88%
